Target: T1, LTK (TYK1) (Homo sapiens, UniProt P29376)
T1 construct: purchased Thermo Fisher Scientific (Life Technologies) SelectScreen
Experiment: SelectScreen Z'LYTE
Assay type: biochemical
Method in brief: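 NU5455 was profiled across the SelectScreen Broad panel of kinase activity and binding assays. Z'LYTE reactions such as CSF1R ran at apparent Km ATP, while the Adapta CAMK1 assay used ATP listed as 10. Values are given as percent.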

T1 sequence (P29376 17-864): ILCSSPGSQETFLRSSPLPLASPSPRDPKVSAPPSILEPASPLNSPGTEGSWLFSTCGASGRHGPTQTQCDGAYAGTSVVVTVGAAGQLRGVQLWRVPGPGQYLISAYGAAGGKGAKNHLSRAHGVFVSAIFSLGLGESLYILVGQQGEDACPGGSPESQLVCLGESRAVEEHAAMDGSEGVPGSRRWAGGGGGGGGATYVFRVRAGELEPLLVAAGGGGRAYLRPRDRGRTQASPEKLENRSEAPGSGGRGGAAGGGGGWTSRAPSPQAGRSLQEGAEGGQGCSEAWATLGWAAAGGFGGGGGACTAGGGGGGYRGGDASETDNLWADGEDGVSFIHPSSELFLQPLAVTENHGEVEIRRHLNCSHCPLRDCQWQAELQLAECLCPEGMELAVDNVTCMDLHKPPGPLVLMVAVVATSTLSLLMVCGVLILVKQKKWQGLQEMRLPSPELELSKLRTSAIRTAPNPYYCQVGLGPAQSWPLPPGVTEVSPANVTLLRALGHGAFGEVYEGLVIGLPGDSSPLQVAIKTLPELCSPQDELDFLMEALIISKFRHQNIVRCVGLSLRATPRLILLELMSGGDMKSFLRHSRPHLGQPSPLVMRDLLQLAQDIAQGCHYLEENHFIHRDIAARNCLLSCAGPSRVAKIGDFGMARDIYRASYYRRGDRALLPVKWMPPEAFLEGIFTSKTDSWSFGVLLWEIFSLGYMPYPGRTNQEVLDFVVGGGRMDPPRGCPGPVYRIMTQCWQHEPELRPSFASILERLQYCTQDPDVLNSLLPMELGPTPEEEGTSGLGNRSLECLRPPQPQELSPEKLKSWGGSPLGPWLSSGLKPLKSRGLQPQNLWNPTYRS

Question: `CN(C(=O)CN1CCOCC1)c1ccc2sc3c(-c4cccc5c(=O)cc(N6CC7CCC(C6)O7)oc45)cccc3c2c1` [NU5455] was tested. Which inhibition at 1 µM did it give?
Answer: The inhibition at 1 µM was -13.1%.

Reference: paper PMC6934184, “Selective DNA-PKcs inhibition extends the therapeutic index of localized radiotherapy and chemotherapy” (The Journal of Clinical Investigation, 2019)
